The text below walks through data of US8940724B2, “Quinoline derivitives and their uses” (Amgen Inc., priority 2009, dated 2015).

T1 sequence (O00329 whole entry): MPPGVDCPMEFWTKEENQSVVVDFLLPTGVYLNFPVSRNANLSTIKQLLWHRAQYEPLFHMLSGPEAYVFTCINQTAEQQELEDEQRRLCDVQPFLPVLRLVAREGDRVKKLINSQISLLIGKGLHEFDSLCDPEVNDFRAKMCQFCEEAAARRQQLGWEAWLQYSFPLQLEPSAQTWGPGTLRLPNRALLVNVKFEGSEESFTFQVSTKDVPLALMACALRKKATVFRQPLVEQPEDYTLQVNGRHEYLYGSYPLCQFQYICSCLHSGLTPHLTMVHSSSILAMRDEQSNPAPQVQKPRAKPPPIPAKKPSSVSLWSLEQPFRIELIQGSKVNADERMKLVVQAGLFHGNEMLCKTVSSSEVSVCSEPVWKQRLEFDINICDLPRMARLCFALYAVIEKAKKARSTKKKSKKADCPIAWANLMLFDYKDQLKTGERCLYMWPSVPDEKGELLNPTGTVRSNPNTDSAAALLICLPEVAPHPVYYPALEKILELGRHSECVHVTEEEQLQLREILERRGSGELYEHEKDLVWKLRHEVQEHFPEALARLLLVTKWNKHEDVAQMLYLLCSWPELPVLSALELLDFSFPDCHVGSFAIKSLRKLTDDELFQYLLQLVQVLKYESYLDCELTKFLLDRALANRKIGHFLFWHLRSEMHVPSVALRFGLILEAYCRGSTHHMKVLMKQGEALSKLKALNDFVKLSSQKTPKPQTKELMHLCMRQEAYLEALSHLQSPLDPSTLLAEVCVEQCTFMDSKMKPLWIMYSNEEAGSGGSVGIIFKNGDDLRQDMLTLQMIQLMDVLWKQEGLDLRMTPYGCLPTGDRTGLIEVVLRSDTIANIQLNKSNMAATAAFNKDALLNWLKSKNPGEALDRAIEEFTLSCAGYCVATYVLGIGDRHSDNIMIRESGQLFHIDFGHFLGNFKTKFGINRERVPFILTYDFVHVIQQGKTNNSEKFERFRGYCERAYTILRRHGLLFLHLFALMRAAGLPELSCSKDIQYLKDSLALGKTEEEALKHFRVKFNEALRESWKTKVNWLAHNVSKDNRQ
T1 sequence (P27986 whole entry partner): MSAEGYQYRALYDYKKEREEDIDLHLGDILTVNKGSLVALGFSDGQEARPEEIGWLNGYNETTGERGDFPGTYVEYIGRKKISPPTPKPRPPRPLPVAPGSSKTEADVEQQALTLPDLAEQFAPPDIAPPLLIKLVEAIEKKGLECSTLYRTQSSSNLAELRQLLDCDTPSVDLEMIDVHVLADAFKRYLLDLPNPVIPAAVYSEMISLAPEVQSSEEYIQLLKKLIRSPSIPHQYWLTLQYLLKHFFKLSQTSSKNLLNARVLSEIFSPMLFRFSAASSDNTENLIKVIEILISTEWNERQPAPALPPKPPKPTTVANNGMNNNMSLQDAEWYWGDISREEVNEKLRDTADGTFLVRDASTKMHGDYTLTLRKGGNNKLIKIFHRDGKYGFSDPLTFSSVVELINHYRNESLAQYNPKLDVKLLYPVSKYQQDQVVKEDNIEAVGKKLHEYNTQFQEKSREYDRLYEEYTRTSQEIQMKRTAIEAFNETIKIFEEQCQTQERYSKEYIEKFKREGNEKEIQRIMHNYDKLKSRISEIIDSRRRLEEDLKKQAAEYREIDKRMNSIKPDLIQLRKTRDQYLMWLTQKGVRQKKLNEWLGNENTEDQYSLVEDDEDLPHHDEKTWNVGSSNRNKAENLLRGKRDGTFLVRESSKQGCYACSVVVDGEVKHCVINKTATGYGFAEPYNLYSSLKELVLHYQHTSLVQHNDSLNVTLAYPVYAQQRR

The assay addresses T1, PI3Kδ (Homo sapiens, UniProt O00329).
T1 construct: Full length p110 subunits of PI3k α, β and δ, N-terminally labeled with polyHis tag; polyHis (N); made in house; host or cells: Sf9 insect cells (baculovirus)
The assay can be described thus: PI3Kδ Alphascreen assay. In kind it is biochemical. On the technique in general: In Alpha technology, singlet oxygen from a donor bead excites a nearby acceptor bead.
Broadly, the Ki is the equilibrium dissociation constant of an inhibitor or competing ligand from its target. Lower therefore signals higher affinity. In the case of `Cc1c(N2CCN[C@@H](C)C2)nc2cc(F)cc(F)c2c1Nc1cncc(N2CCOCC2)c1` [5,7-difluoro-3-methyl-2-((3S)-3-methyl-1-piperazinyl)-N-(5-(4-morpholinyl)-3-pyridinyl)-4-quinolinamine], the affinity corresponds to a Ki of 20.6 nM. Compound `Cc1c(-c2ccccn2)nc2cc(F)cc(F)c2c1Oc1cncc(N2CCOCC2)c1` [5,7-difluoro-3-methyl-4-((5-(4-morpholinyl)-3-pyridinyl)oxy)-2-(2-pyridinyl)quinoline] yielded a Ki of 51.9 nM.

With `Cc1c(-c2ccccn2)nc2cc(F)cc(F)c2c1Nc1cc(N2CCOCC2)cnc1-c1ccc(S(C)(=O)=O)cc1` [5,7-difluoro-3-methyl-N-(2-(4-(methylsulfonyl)phenyl)-5-(4-morpholinyl)-3-pyridinyl)-2-(2-pyridinyl)-4-quinolinamine], affinity was put at a Ki of 2.15 nM. As to `Cc1c(-c2ccccc2S(C)(=O)=O)nc2cc(F)cc(F)c2c1Nc1cc(N2CCOCC2)ccc1S(C)(=O)=O` [5,7-difluoro-3-methyl-N-(2-(methylsulfonyl)-5-(4-morpholinyl)-phenyl)-2-(2-(methylsulfonyl)phenyl)-4-quinolinamine], the Ki came to 0.827 nM.

In the case of `Cc1c(N2CCNCC2)nc2cc(F)cc(F)c2c1Nc1cncc(N2CCOCC2)c1` [5,7-difluoro-3-methyl-N-(5-(4-morpholinyl)-3-pyridinyl)-2-(1-piperazinyl)-4-quinolinamine], the affinity corresponds to a Ki of 87.1 nM. `Cc1c(-c2ccnc(N3CCCC3)c2)nc2cc(F)cc(F)c2c1Nc1cncc(N2CCOCC2)c1` [5,7-difluoro-3-methyl-N-(5-(4-morpholinyl)-3-pyridinyl)-2-(2-(1-pyrrolidinyl)-4-pyridinyl)-4-quinolinamine]: the Ki is 315 nM. Against the preceding compound, the Ki is about 3.6-fold higher. The compound `Cc1c(N2CCN(C(=O)c3cocn3)CC2)nc2cc(F)cc(F)c2c1Nc1cncc(N2CCOCC2)c1` [5,7-difluoro-3-methyl-N-(5-(4-morpholinyl)-3-pyridinyl)-2-(4-(1,3-oxazol-4-ylcarbonyl)-1-piperazinyl)-4-quinolinamine] came in with a Ki of 14.5 nM.

`Cc1c(N2CCN(C(=O)c3cnco3)CC2)nc2cc(F)cc(F)c2c1Nc1cncc(N2CCOCC2)c1` [5,7-difluoro-3-methyl-N-(5-(4-morpholinyl)-3-pyridinyl)-2-(4-(1,3-oxazol-5-ylcarbonyl)-1-piperazinyl)-4-quinolinamine] had a Ki of 48 nM. The compound `Cc1c(N2CCN(CC(F)(F)F)CC2)nc2cc(F)cc(F)c2c1Nc1cncc(N2CCOCC2)c1` [5,7-difluoro-3-methyl-N-(5-(4-morpholinyl)-3-pyridinyl)-2-(4-(2,2,2-trifluoroethyl)-1-piperazinyl)-4-quinolinamine] yielded a Ki of 40.7 nM. `Cc1c(N2CCN(C(=O)c3ncccn3)CC2)nc2cc(F)cc(F)c2c1Nc1cncc(N2CCOCC2)c1` [5,7-difluoro-3-methyl-N-(5-(4-morpholinyl)-3-pyridinyl)-2-(4-(2-pyrimidinylcarbonyl)-1-piperazinyl)-4-quinolinamine] registered a Ki of 645 nM. This Ki is about 16-fold higher than that of the compound before.

On to `Cc1c(N2CCN(c3cccnc3)CC2)nc2cc(F)cc(F)c2c1Nc1cncc(N2CCOCC2)c1` [5,7-difluoro-3-methyl-N-(5-(4-morpholinyl)-3-pyridinyl)-2-(4-(3-pyridinyl)-1-piperazinyl)-4-quinolinamine], for which the affinity corresponds to a Ki of 11.8 nM. Turning to `Cc1c(N2CCN(C(=O)c3cccnc3)CC2)nc2cc(F)cc(F)c2c1Nc1cncc(N2CCOCC2)c1` [5,7-difluoro-3-methyl-N-(5-(4-morpholinyl)-3-pyridinyl)-2-(4-(3-pyridinylcarbonyl)-1-piperazinyl)-4-quinolinamine], the affinity, expressed as Ki, was 343 nM. This Ki is about 29-fold higher than that of the compound before. In the case of `Cc1c(N2CCN(S(=O)(=O)c3cccnc3)CC2)nc2cc(F)cc(F)c2c1Nc1cncc(N2CCOCC2)c1` [5,7-difluoro-3-methyl-N-(5-(4-morpholinyl)-3-pyridinyl)-2-(4-(3-pyridinylsulfonyl)-1-piperazinyl)-4-quinolinamine], the affinity, expressed as Ki, was 67.5 nM. This Ki lies about 5.1-fold lower than the previous one. In turn, `Cc1c(N2CCN(C(=O)c3ccncn3)CC2)nc2cc(F)cc(F)c2c1Nc1cncc(N2CCOCC2)c1` [5,7-difluoro-3-methyl-N-(5-(4-morpholinyl)-3-pyridinyl)-2-(4-(4-pyrimidinylcarbonyl)-1-piperazinyl)-4-quinolinamine] came in with a Ki of 99.1 nM. Consider `Cc1c(N2CCN(C(=O)c3ccccc3)CC2)nc2cc(F)cc(F)c2c1Nc1cncc(N2CCOCC2)c1` [5,7-difluoro-3-methyl-N-(5-(4-morpholinyl)-3-pyridinyl)-2-(4-(phenylcarbonyl)-1-piperazinyl)-4-quinolinamine], for which the Ki is 87.9 nM. The compound `Cc1c(N2CCN(S(=O)(=O)c3ccccc3)CC2)nc2cc(F)cc(F)c2c1Nc1cncc(N2CCOCC2)c1` [5,7-difluoro-3-methyl-N-(5-(4-morpholinyl)-3-pyridinyl)-2-(4-(phenylsulfonyl)-1-piperazinyl)-4-quinolinamine] gave an inhibition constant (Ki) of 33.4 nM.

`Cc1c(N2CCN(C(=O)C3CCOCC3)CC2)nc2cc(F)cc(F)c2c1Nc1cncc(N2CCOCC2)c1` [5,7-difluoro-3-methyl-N-(5-(4-morpholinyl)-3-pyridinyl)-2-(4-(tetrahydro-2H-pyran-4-ylcarbonyl)-1-piperazinyl)-4-quinolinamine] came in with a Ki of 55.7 nM.

Take `Cc1c(N2CCN(c3ccccc3)CC2)nc2cc(F)cc(F)c2c1Nc1cncc(N2CCOCC2)c1` [5,7-difluoro-3-methyl-N-(5-(4-morpholinyl)-3-pyridinyl)-2-(4-phenyl-1-piperazinyl)-4-quinolinamine]: the inhibitory constant (Ki) was found to be 78.1 nM. The Ki values of the last two compounds are within 1.5-fold of each other. As for `CCCN1CCN(c2nc3cc(F)cc(F)c3c(Nc3cncc(N4CCOCC4)c3)c2C)CC1` [5,7-difluoro-3-methyl-N-(5-(4-morpholinyl)-3-pyridinyl)-2-(4-propyl-1-piperazinyl)-4-quinolinamine], the figure is 13.5 nM; as for `Cc1c(-c2ccc(N3CCNCC3)nc2)nc2cc(F)cc(F)c2c1Nc1cncc(N2CCOCC2)c1` [5,7-difluoro-3-methyl-N-(5-(4-morpholinyl)-3-pyridinyl)-2-(6-(1-piperazinyl)-3-pyridinyl)-4-quinolinamine], 432 nM; as for `Cc1c(-c2ccc(N3CCCCC3)nc2)nc2cc(F)cc(F)c2c1Nc1cncc(N2CCOCC2)c1` [5,7-difluoro-3-methyl-N-(5-(4-morpholinyl)-3-pyridinyl)-2-(6-(1-piperidinyl)-3-pyridinyl)-4-quinolinamine], 517 nM. Compound `Cc1c(-c2ccc(N3CCOCC3)nc2)nc2cc(F)cc(F)c2c1Nc1cncc(N2CCOCC2)c1` [5,7-difluoro-3-methyl-N-(5-(4-morpholinyl)-3-pyridinyl)-2-(6-(4-morpholinyl)-3-pyridinyl)-4-quinolinamine] displayed a Ki of 444 nM. `Cc1c(N2CCN(CC(F)(F)F)CC2)nc2cc(F)cc(F)c2c1N(CC(F)(F)F)c1cncc(N2CCOCC2)c1` [5,7-difluoro-3-methyl-N-(5-(4-morpholinyl)-3-pyridinyl)-N-(2,2,2-trifluoroethyl)-2-(4-(2,2,2-trifluoroethyl)-1-piperazinyl)-4-quinolinamine]: affinity was put at a Ki of 493 nM. Compound `Cc1c(-c2cccnc2)nc2cc(F)cc(F)c2c1Nc1cc(N2CCOC[C@H]2C)cnc1N1CCOCC1` [5,7-difluoro-3-methyl-N-(5-((3R)-3-methyl-4-morpholinyl)-2-(4-morpholinyl)-3-pyridinyl)-2-(3-pyridinyl)-4-quinolinamine] gave an inhibition constant (Ki) of 69.5 nM.
